System: HCT 116 cell line
Assay: cDNA overexpression of LTBR and TMEM30A: oxaliplatin IC50, cell viability
Format: cell-based, human
Details: 72 h
Text: FIGS. 5A-5C show the validation of genes identified in the siRNA screen for genes regulating sensitivity or resistance to oxaliplatin. The effect of siRNA-silencing or cDNA overexpression on the IC50 of oxaliplatin was expressed as the log2 fold-shift of the mean IC50 of siRNA-treated (or cDNA-overexpressing) cells relative to the mean IC50 of non-silencing siRNA control-treated (or vector-alone) cells. […] Data represent mean±SEM (n=3).
Full-length LTBR and TMEM30A open reading frames were cloned into pCMV-XL4 (Origene, Rockville, Md.) and validated by sequencing. Transfection was performed using Turbofectin 8.0® (Origene, Rockville, Md.) in a 96-well format as per manufacturer's instructions using 100 ng cDNA per well. Following a 4 hr incubation, 10 μl per well of an 11-point, 2-fold serial dilution of oxaliplatin (50 μM maximum) was then added. Assays were performed in triplicate, using the empty pCMV-XL4 vector as negative control, with biological replicates. […] Overexpression of cDNA was validated by qRT-PCR using the High-Capacity cDNA Reverse Transcription Kit® (Life Technologies, Carlsbad, Calif.) and qPCR using the 7900 HT Fast Real-Time PCR System® (Life Technologies, Carlsbad, Calif.) with gene-specific primers (ABI, Carlsbad, Calif.).

## O=C1[O][Pt]2([NH][C@@H]3CCCC[C@H]3[NH]2)[O]C1=O [oxaliplatin]
Transient overexpression of full-length LTBR vs empty pCMV-XL4 vector
  increase of IC50 of oxaliplatin: > 2 fold
Transient overexpression of full-length TMEM30A vs empty pCMV-XL4 vector
  increase of IC50 of oxaliplatin: > 2 fold

Source: patent US20120046186A1, “Gene Expression Markers for Prediction of Response to Platinum-Based Chemotherapy Drugs” (priority 2010, published 2012)
